What was measured:
[1] = Inhibition of amyloid beta (1 to 42) aggregation assessed as inhibition of fibril formation at 10 uM by thioflavin-T fluorescent dye assay
SH-SY5Y = assay: cells; conditions: Homo sapiens, 48 h
Description: Cytotoxicity against human SH-SY5Y cells assessed as cell viability after 48 hrs by MTT assay

Acetylcholinesterase = Acetylcholinesterase (Electrophorus electricus, UniProt O42275)
Description: Inhibition of electric eel AChE by Ellman's method

Cholinesterase = Cholinesterase (Equus caballus, UniProt P81908)
Chain of Cholinesterase (P81908 whole entry): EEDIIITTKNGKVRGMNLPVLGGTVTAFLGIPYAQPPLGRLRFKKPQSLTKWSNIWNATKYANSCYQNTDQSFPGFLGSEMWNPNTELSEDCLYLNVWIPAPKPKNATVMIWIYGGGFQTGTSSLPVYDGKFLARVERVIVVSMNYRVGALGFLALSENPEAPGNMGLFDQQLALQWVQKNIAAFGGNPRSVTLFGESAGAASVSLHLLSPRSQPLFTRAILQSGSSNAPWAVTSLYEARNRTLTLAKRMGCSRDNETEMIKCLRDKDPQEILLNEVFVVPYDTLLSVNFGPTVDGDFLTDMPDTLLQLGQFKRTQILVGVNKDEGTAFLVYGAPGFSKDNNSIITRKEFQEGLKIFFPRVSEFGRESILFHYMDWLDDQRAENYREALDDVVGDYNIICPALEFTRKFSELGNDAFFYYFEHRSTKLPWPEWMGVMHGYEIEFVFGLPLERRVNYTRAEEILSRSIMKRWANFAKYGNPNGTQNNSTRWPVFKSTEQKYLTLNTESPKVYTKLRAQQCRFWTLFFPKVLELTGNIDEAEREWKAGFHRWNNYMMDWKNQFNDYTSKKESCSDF
Description: Inhibition of equine serum BChE by Ellman's method

Chain of Acetylcholinesterase (O42275 whole entry): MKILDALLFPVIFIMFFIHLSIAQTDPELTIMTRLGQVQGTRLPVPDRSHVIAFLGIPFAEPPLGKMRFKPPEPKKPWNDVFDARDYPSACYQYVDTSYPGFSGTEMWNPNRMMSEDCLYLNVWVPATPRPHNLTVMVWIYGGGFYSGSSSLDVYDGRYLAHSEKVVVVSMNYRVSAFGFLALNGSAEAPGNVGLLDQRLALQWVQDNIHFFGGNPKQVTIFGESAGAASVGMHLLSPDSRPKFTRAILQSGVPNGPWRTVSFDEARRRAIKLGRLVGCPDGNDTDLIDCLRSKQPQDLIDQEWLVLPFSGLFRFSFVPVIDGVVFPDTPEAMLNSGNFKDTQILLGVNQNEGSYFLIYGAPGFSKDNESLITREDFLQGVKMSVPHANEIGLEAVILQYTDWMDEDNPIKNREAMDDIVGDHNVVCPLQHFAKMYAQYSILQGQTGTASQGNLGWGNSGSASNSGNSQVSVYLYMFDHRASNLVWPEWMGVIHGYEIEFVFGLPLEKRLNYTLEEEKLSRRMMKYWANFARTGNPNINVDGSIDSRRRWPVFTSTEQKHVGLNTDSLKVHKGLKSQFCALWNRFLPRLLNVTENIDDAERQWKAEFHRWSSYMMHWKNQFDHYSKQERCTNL

Compound | inhibition [1] [%] | IC50 (SH-SY5Y) [µM] | IC50 (Acetylcholinesterase) [µM] | IC50 (Cholinesterase) [µM]
O=C(CN1CCCC1)Nc1ccc2c(c1)C(=O)c1cccc3ccnc-2c13 | 45.4 | 5.37 | – | –
CN(C)CCOc1cnc2c3c(cccc13)C(=O)c1ccccc1-2 | 14.3 | 16.2 | 1.56 | 1.64
CN1CCN(CCCOc2ccc3c4c(nccc24)-c2ccccc2C3=O)CC1 | 33.6 | > 25 | 0.405 | 5.5
O=C1c2ccccc2-c2nccc3c(OCCCN4CCCCC4)ccc1c23 | 40.1 | > 25 | 0.022 | 0.905
CCN(CC)CCC(=O)Nc1ccc2c(c1)C(=O)c1cccc3ccnc-2c13 | 62.5 | 3.94 | – | –
CCN(CC)CCCOc1ccc2c3c(nccc13)-c1ccccc1C2=O | 14 | > 25 | 0.0343 | 2.7
C[N+]1(CCOc2cnc3c4c(cccc24)C(=O)c2ccccc2-3)CCCCC1 | 50.9 | > 25 | 0.095 | 0.255
C[N+]1(CC(=O)Nc2ccc3c(c2)C(=O)c2cccc4ccnc-3c24)CCCC1 | 52 | > 25 | – | –
CC[N+](C)(CC)CCOc1cnc2c3c(cccc13)C(=O)c1ccccc1-2 | 45.5 | > 25 | 0.258 | 0.708
O=C1c2ccccc2-c2ncc(OCCN3CCCC3)c3cccc1c23 | 31.8 | 12 | 0.471 | 0.79
C[N+]1(CCC(=O)Nc2ccc3c(c2)C(=O)c2cccc4ccnc-3c24)CCCC1 | 85.9 | 2.12 | – | –
C[N+](C)(C)CCOc1cnc2c3c(cccc13)C(=O)c1ccccc1-2 | 42 | > 25 | 0.933 | 0.972
C[N+](C)(C)CCCC(=O)Nc1ccc2c(c1)C(=O)c1cccc3ccnc-2c13 | 58.6 | > 25 | – | –
CN(C)CCCNc1ccc2c3c(nccc13)-c1ccccc1C2=O | 57.6 | > 25 | 0.398 | 3.35
CCN(CC)CCOc1cnc2c3c(cccc13)C(=O)c1ccccc1-2 | 3.88 | 9.21 | 0.7 | 1.49
CCN(CC)CCOc1ccc2c3c(nccc13)-c1ccccc1C2=O | 10.7 | > 25 | 0.201 | 3.07
CN(C)CCC(=O)Nc1ccc2c(c1)C(=O)c1cccc3ccnc-2c13 | 69.8 | 4.14 | – | –
O=C1c2ccccc2-c2nccc3c(OCCN4CCCCC4)ccc1c23 | 38.9 | > 25 | 0.088 | 2.21
CN1CCN(CCOc2ccc3c4c(nccc24)-c2ccccc2C3=O)CC1 | 43 | > 25 | 0.432 | 2.75
C[N+](C)(C)CCC(=O)Nc1ccc2c(c1)C(=O)c1cccc3ccnc-2c13 | 80.1 | > 25 | – | –
COc1cc(/C=C/C(=O)CC(=O)/C=C/c2ccc(O)c(OC)c2)ccc1O | 33.3 | – | – | –
O=C(CCN1CCCC1)Nc1ccc2c(c1)C(=O)c1cccc3ccnc-2c13 | 69.8 | 4.57 | – | –
O=C1c2ccccc2-c2ncc(OCCN3CCCCC3)c3cccc1c23 | 34.2 | > 25 | 0.375 | 0.723
CN(C)CCCC(=O)Nc1ccc2c(c1)C(=O)c1cccc3ccnc-2c13 | 65.2 | 3.27 | – | –
C[N+]1(CCOc2cnc3c4c(cccc24)C(=O)c2ccccc2-3)CCCC1 | 48.8 | > 25 | 0.145 | 0.302
CC[N+](C)(CC)CCC(=O)Nc1ccc2c(c1)C(=O)c1cccc3ccnc-2c13 | 82.7 | > 25 | – | –

— ChEMBL document CHEMBL1770074, “Syntheses and characterization of novel oxoisoaporphine derivatives as dual inhibitors for cholinesterases and amyloid beta aggregation” (Eur J Med Chem, 2011)
